Laboratory results: patent US20140378541A1, “Synthetic Epigallocatechin Gallate (EGCG) Analogs” (WAYNE STATE UNIVERSITY, priority 2011, published 2014)
Where a chain is given by its changes, count along the chain named. Read-outs that look alike come from different tables or passages of the source.

Legend:
[1] = test system: Human breast cancer MDA-MB-231 cells; test: MTT cell proliferation assay in MDA-MB-231 cells; format: cell-based; conditions: 24 h; for inhibition at 50 µM: Homo sapiens, MDA-MB-231
Description: Human breast cancer MDA-MB-231 cells were treated with 25 or 50 μM EGCG analogs for 24 hours, followed by MTT assay. Pro-EGCG was used as a comparison.
Human breast cancer MDA-MB-231 cells with high COMT activity were treated with 50 μM EGCG analogs for 24 hours in the absence or presence of 10 μM DNC, followed by MTT assay. Pro-EGCG was used as a comparison.
(§1) (A) EGCG analogs 23 and 30 inhibited breast cancer cell proliferation. MDA-MB-231 cells were treated with indicated concentrations of 23, 30 or metformin for 24 h, followed by a MTT assay. *, P<0.1; **, P<0.01. Columns, mean of three experiments; bars, SD. (B) EGCG analogs 23 and 30 activated AMPK at a dose-dependent manner, measured by elevated level of phosphor-AMPKα and its downstream proteins of phosphor-Raptor. […] MDA-MB-231 cells were treated with indicated concentrations of 23 or 30 for 3 h, followed by Western blot analysis with the indicated antibodies. The numbers underneath the Western results of p-AMPKα indicated normalized phosphor-AMPKα/β-actin ratios. […]
(§2) Cells were grown in a 96-well plate. Triplicate wells of cells were treated with indicated concentrations of EGCG or EGCG analogs for 24 h. After aspiration of medium, MTT (1 mg/ml) was then added to the cell cultures, followed by incubation for 3 h at 37° C. After cells were crystallized, MTT was removed and DMSO was added to dissolve the metabolized MTT product. The absorbance was then measured on a Wallac Victor3 1420 Multi-label counter at 540 nm.

[2] = target: T1, purified rabbit 20S proteasome (Oryctolagus cuniculus, UniProt G1T4Q9); test: Inhibition of chymotrypsin-like activity of purified 20S proteasome; format: biochemical; conditions: for proteasomal inhibition (in words): purified 20S proteasome, concentration not stated; for inhibition of proteasomal chymotryptic activity (in words): even at a concentration of 50 μM
T1 sequence (G1T4Q9 60-263): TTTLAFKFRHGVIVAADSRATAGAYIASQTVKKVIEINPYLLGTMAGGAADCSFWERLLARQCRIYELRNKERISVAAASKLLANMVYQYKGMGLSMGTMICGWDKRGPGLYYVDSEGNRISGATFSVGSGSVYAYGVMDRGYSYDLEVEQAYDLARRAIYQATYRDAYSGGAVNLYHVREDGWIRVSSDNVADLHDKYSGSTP
Description: Purified 20S proteasome was incubated with compound 5, 7, 16, or 21 (A) or MDA-MB-231 cell extract (5.7 μg) was incubated with compound 6, 8, 17, or 22 (B) at indicated concentrations for 2 hours, followed by measuring the proteasomal chymotrypsin-like activity. EGCG was used as a comparative standard.
Purified rabbit 20S proteasome and fluorogenic substrate Suc-LLVY-AMC for the proteasomal chymotrypsin like (CT-like) activity were obtained from Calbiochem Inc. (San Diego, Calif.). Fetal bovine serum (FBS) was from Tissue Culture Biologicals (Tulare, Calif.). Penicillin and streptomycin were purchased from Invitrogen Co. (Carlsbad, Calif.). RPMI 1640 medium was purchased from Invitrogen Co. (Carlsbad, Calif.). MTT (3-4,5-dimethylthiazol-2-yl-2.5-diphenyl-tetrazolium bromide) was purchased from Sigma-Aldrich.
A purified rabbit 20S proteasome (35 ng) was incubated with 20 μM of substrate Suc-LLVY-AMC in 100 μl assay buffer (20 mM Tris-HCl, pH 7.5), in the presence of EGCG or EGCG analogs at different concentrations or the solvent for 2 h at 37° C., followed by measurement of hydrolysis of the fluorogenic substrates using a Wallac Victor3™ multi-label counter with 355-nm excitation and 460-nm emission wavelengths.

AMPK signaling = test: AMPK activation, Western blot, MDA-MB-231 cells; format: cell-based, human; conditions: 20 μM, 3 h; metformin 10 mM as comparison
Description: In FIG. 9A, human breast cancer MDA-MB-231 cells were treated with 20 μM of EGCG, Pro-EGCG and EGCG analogs (compounds 5, 7, 23, 30 and 31), or 10 mM of metformin for 3 hrs. Cell lysates were analyzed by Western blot using antibodies of anti-AMPK, p-AMPK, PARP, p-EGFR, EGFR or β-actin. In FIG. 9B, human breast cancer MDA-MB-231 cells were treated with 20 μM of EGCG analogs 23 and 30, 10 nM of docetaxel alone, or combined treatment with compounds 23 and 30 plus docetaxel for 24 hrs. Cell lysates were analyzed by Western blot using antibodies of anti-AMPK, p-AMPK, PARP, p-EGFR, EGFR or β-actin. In FIG. 9C, cells were incubated in medium (0.1% BSA without FBS) containing 20 μM of 23, 30, 2.5 μM of Erlotinib (Eb) alone or the combinations as indicated for 24 hrs. Cell lyses were analyzed by Western blot using antibodies of anti-AMPK, p-AMPK, PARP, p-EGFR, EGFR or β-actin.
as §1
A whole cell extract was prepared from the treated cells as described by Landis-Piwowar et al. Cancer Res. (2007) 67, 4303, Chen et al. Cancer Res. (2007) 67, 1636, and Chen et al. Biochem. Pharm. (2005) 69, 1421. Cell extracts (30 μg) were separated by an SDS-PAGE gel and transferred to nitrocellulose membranes. The membrances were blotted by specific antibodies including anti-AMPK, p-AMPK, EGFR, p-EGFR (Cell Signaling Tech., Danvers, Mass.), PARP (Enzo Life Sciences, Plymouth Meeting, Pa.), actin (Santa Cruz Biotechnology, Santa Cruz, Calif.). The membranes were visualized by enhanced chemiluminescence, as described previously by Landis-Piwowar et al. Cancer Res. (2007) 67, 4303, Chen et al. Cancer Res. (2007) 67, 1636, and Chen et al. Biochem. Pharm. (2005) 69, 1421.
The Western blot analysis was performed as follows: A whole cell extract was prepared from the treated cells as described previously (Landis-Piwowar et al., Cancer research, 2007, 67: 4303-4310; Chen et al., Cancer research, 2007, 67: 1636-1644; Chen et al., Biochemical pharmacology, 2005, 69: 1421-1432). The cell extracts (30 μg) were then separated by an SDS-PAGE gel and transferred to nitrocellulose membranes. The membrances were blotted by specific antibodies including anti-AMPK, p-AMPK, EGFR, p-EGFR (Cell Signaling Tech. Danvers, Mass.), PARP (Enzo Life Sciences, Plymouth Meeting, Pa.), actin (Santa Cruz Biotechnology, Santa Cruz, Calif.). The membranes were visualized by enhanced chemiluminescence, as described previously (Landis-Piwowar et al., Cancer research, 2007, 67: 4303-4310; Chen et al., Cancer research, 2007, 67: 1636-1644; Chen et al., Biochemical pharmacology, 2005, 69: 1421-1432).
In FIG. 9A, human breast cancer MDA-MB-231 cells were treated with 20 μM of EGCG, Pro-EGCG and other EGCG analogs (compounds 5, 7, 23, 30 and 31), or 10 mM of metformin for 3 hrs. Cell lysates were analyzed by Western blot using antibodies of anti-AMPK, p-AMPK, PARP, p-EGFR, EGFR or β-actin. In FIG. 9B, human breast cancer MDA-MB-231 cells were treated with 20 μM of EGCG analogs 23 and 30, 10 nM of docetaxel alone, or combined treatment with compounds 23 and 30 plus docetaxel for 24 hrs.

[3] = target: T2, proteasomal chymotrypsin-like activity of MDA-MB-231 cell extracts (Homo sapiens, UniProt P28074); test: Proteasomal chymotrypsin-like activity in MDA-MB-231 cell lysate with high COMT activity; format: biochemical; conditions: concentrations ranging between 1-10 μM, 2 h
T2 construct: endogenous in cells; host or cells: MDA-MB-231 human breast cancer cells (ATCC), cell extract
T2 sequence (P28074 60-263): T1 sequence (G1T4Q9 60-263) with D197E
Description: (A) MDA-MB-231 cell extracts (5.7 μg) were incubated with different concentrations of compound 5 or 7 or EGCG for 2 hours, followed by performance of proteasomal chymotrypsin-like activity assay. EGCG was used as a control. (B) MDA-MB-231 cell extracts (5.7 μg) were pre-treated with 10 μM DNC for 20 minutes, followed by co-incubation with compound 5, or 7 or EGCG for 2 h. The proteasomal chymotrypsin-like activity was measured.
Human breast cancer MDA-MB-231 cell lysate that contains high COMT activity were treated with varying concentrations of compound 5 or 7. […] Thus, consistent with previous reports EGCG is also susceptible to methylation by COMT (H., Lu, X. Meng, C. S. Yang, Drug Metabolism and Disposition; 31; 572, 2003).

[4] = test system: human multiple myeloma ARP cells; test: MTT assay in multiple myeloma ARP cells, alone or with Velcade; format: cell-based; conditions: 48 h; for effect on cell proliferation when combined with Velcade: 20 μM plus varying doses of Velcade
Description: The cells were treated with Velcade™ alone or with 20 μM of compounds 5, 7 and 23 or in combination with varying doses of Velcade™ for 48 hrs, followed by a MTT assay.
Human multiple myeloma cells (Arp and Opm1) cells, kindly provided by Dr. Ramesh Batchu (Wayne State University), were grown in RPMI-1640 medium supplemented with 10% FBS, 100 units/ml of penicillin, and 100 μg/ml of streptomycin. Cells were maintained at 37° C. in 5% CO2 (Mujtaba T, et al., Int J Mol Med. (2012) 29(1):102-6).
as §2

[5] = test system: human multiple myeloma OPM1 cells; test: MTT assay in multiple myeloma OPM1 cells, alone or with Velcade; format: cell-based; conditions: 48 h
MDA-MB-231 cells = test: Mammosphere formation assay; format: cell-based; conditions: Homo sapiens, MDA-MB-231, 168 h, 7 days
Description: MDA-MB-231 cells were seeded in low attached 6-well plates (1000 cells/well) and treated with indicated concentrations of 23 and 30 for 7 days, followed by calculating numbers of mammosphere (A) and taking photos of mammosphere morphology (B). Metformin and EGCG were served as control. *, P<0.1; **, P<0.01. Columns, mean of three experiments; bars, SD.
Mammosphere formation assay was performed to assess the capacity of cancer stem cell self-renewal. Single cell suspensions of MDA-MB-231 cells were thoroughly suspended and plated on ultra low adherent wells of 6-well plates (Corning, Lowell, Mass.) at 1000 cells/well in 1.5 ml of sphere formation medium (1:1 DMEM/F12 medium supplemented with 50 units/ml penicillin, […] streptomycin, B-27 and N-2). One milliliter of sphere formation medium was added every 3-4 days. After 7 days of incubation with different concentrations of EGCG analogs 23, 30 or metformin, the formed spheres were collected by centrifugation at 300 g for 5 min and counted with an inverted phase-contrast Zeiss Axiovert 25 microscope.

In the case of `CC(=O)Oc1cc(OC(C)=O)c2c(c1)O[C@H](c1cc(OC(C)=O)c(OC(C)=O)c(OC(C)=O)c1)[C@H](OC(=O)c1cc(OC(C)=O)c(OC(C)=O)c(OC(C)=O)c1)C2` [Compound 4, (−)-Epigallocatechin gallate octa-acetate], the “inhibition in MDA-MB-231 cells growth” value ([1]; 25 to 50 μM, MTT) is reported as 0 to 32%, the inhibition at 50 µM ([1]; absence of DNC, read-out: inhibition of cell proliferation, compound alone) is reported as 42% and the inhibition at 50 µM ([1]; plus 10 μM DNC (COMT inhibitor), read-out: inhibition of cell proliferation in the presence of DNC) is reported as 89%. The “proteasomal inhibition (in words)” value [2] was “none” and the “AMPK activation (p-AMPK)” value (AMPK signaling) was “can activate AMPK signaling”.

With `O=C(O[C@H]1Cc2ccccc2C[C@H]1OC(=O)c1cc(O)c(O)c(O)c1)c1cc(O)c(O)c(O)c1` [Compound 5] the “inhibition of proteasomal activity” value [3] was 10-16% and the “effect on cell proliferation when combined with Velcade” value [4] was “antagonized the inhibitory effect”.

For `O=C(O[C@H]1Cc2ccccc2C[C@H]1OC(=O)c1cc(O)cc(O)c1)c1cc(O)cc(O)c1` [Compound 7], the “inhibition of proteasomal activity” value [3] was 18-51%, the “effect on cell proliferation when combined with Velcade” value [4] was “synergistic inhibitory effect” and the inhibition at 20 µM ([4]; Homo sapiens, ARP cells, 20 μM, read-out: inhibition of cell proliferation) was about 60%.

With `O=C(O[C@H]1Cc2ccccc2C[C@H]1O)c1cc(O)c(O)c(O)c1` [Compound 16] the “inhibition of proteasomal chymotryptic activity (in words)” value [2] was “did not inhibit”.

For `CC(=O)Oc1cc(C(=O)O[C@H]2Cc3ccccc3C[C@H]2OC(C)=O)cc(OC(C)=O)c1OC(C)=O` [Compound 17], the “proteasomal inhibition (in words)” value [2] was “none”.

In the case of `O=C(O[C@H]1Cc2ccccc2C[C@H]1O)c1cc(O)cc(O)c1` [Compound 21], the “inhibition of proteasomal chymotryptic activity (in words)” value [2] is reported as “not active”.

With `CC(=O)Oc1cc(OC(C)=O)cc(C(=O)O[C@H]2Cc3ccccc3C[C@H]2OC(C)=O)c1` [Compound 22] the “proteasomal inhibition (in words)” value [2] was “none”.

`O=C(O[C@H]1Cc2ccccc2C[C@H]1OC(=O)c1ccc(F)c(F)c1)c1ccc(F)c(F)c1` [Compound 33] showed a melting point of 102 to 104 °C.

In the case of `O=C(O[C@H]1Cc2ccccc2C[C@H]1OC(=O)c1cc(F)cc(F)c1)c1cc(F)cc(F)c1` [Compound 34], the melting point is reported as 136 to 138 °C.

In the case of `CC(C)C[C@H](NC(=O)[C@H](Cc1ccccc1)NC(=O)c1cnccn1)B(O)O` [Velcade™, bortezomib, reference compound], the “sensitivity of OPM1 cell line to treatment, versus ARP cells” value [5] is reported as “more resistant” and the “cell proliferation, Velcade alone” value ([4]; varying doses) is reported as “reduced cell proliferation in a dose-dependent manner”.

Molecule `CN(C)C(=N)N=C(N)N` [metformin, reference compound] has an inhibition at 5000 µM (MDA-MB-231 cells; 5 mM) of 41.4% and an inhibition at 10000 µM (MDA-MB-231 cells; 10 mM) of 67.6%.
